Assay results as given in patent publication US20260193268A1, “TRICYCLIC PI3Ka INHIBITOR, PREPARATION METHOD THEREFOR, AND PHARMACEUTICAL USE THEREOF” (WIGEN BIOMEDICINE TECHNOLOGY (SHANGHAI) CO., LTD., priority 2022, published 2026).
pIC50: −log10 of the molar value.

Legend:
PI3Kα = PI3Kα (Homo sapiens, UniProt P42336); experiment: ADP-Glo kinase assay, in vitro inhibition of PI3Kα kinase activity; format: biochemical; conditions: 25 μM ATP, PIP2 50 μg/mL, room temperature 1 h, read-out: Inhibitory activity against PI3K kinases, PI3Kα (IC50)
Chain of PI3Kα (P42336 whole entry): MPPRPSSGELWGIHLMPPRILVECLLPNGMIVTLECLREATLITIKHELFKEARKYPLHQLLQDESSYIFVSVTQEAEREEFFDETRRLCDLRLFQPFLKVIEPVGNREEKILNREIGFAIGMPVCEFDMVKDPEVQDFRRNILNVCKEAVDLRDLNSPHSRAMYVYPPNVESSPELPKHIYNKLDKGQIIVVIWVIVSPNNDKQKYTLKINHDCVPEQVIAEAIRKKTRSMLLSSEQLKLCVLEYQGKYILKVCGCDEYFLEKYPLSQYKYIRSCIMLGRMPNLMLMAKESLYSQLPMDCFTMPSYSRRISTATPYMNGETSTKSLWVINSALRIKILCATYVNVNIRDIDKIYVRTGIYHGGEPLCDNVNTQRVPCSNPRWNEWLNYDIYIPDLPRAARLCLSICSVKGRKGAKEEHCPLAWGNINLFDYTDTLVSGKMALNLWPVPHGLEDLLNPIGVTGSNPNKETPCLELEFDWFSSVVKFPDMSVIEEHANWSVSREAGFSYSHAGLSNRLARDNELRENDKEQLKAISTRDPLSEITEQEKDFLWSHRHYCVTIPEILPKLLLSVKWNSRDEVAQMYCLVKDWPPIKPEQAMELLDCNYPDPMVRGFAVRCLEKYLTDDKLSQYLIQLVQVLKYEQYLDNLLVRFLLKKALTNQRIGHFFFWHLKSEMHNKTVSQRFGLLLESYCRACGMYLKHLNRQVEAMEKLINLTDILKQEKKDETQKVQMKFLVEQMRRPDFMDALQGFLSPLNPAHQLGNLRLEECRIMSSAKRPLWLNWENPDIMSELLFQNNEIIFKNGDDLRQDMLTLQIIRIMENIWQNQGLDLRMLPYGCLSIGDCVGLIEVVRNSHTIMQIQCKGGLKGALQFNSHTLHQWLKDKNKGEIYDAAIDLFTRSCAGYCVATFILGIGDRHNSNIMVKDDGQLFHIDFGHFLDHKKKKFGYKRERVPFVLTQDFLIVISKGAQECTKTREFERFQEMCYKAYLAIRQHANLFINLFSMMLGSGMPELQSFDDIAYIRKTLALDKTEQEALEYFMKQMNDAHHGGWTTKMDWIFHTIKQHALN
Chain of PI3Kα (P27986 whole entry partner): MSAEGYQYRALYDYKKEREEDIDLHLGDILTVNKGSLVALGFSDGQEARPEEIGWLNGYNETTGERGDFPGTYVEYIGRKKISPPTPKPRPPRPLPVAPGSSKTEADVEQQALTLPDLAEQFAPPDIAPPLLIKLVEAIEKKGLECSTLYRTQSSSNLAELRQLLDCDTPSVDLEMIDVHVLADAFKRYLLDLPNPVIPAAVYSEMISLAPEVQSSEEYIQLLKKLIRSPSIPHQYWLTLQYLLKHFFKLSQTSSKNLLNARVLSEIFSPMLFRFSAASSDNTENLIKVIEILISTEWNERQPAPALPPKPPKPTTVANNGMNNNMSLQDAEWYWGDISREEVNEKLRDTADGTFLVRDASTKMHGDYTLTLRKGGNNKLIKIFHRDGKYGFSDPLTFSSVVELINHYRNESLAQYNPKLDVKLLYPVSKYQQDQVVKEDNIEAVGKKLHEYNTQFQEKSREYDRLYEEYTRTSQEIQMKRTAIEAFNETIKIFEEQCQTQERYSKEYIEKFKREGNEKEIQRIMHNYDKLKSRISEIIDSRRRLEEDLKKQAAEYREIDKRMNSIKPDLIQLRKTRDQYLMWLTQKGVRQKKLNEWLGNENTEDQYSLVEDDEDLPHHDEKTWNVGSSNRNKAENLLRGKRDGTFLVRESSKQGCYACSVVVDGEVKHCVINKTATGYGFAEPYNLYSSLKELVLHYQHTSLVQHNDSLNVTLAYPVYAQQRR
Experimental: (§1) Biological Example 1. Assay for In Vitro Inhibition of PI3Kα, PI3Kβ, PI3Kγ, and PI3Kδ Kinase Activity by Compounds of the Present Disclosure
(§2) The experiment was performed using the ADP-Glo Kinase Assay kit according to the instructions. The following buffer solution was prepared: 50 mM HEPES, pH 7.5, 3 mM MgCl2, 1 mM EGTA, 100 mM NaCl, 0.03% CHAPS, 2 mM DTT. Test compound samples were dissolved in DMSO, diluted 3-fold at a starting concentration, e.g., 10 μM, and added to the screening system. A DMSO control and a kinase-free control were set simultaneously. The optimal concentrations of PI3Kα, PI3Kδ, PI3Kβ, and PI3Kγ enzymes, substrate (PIP2), and ATP were prepared with buffer. The enzyme reaction system contained: buffer, 25 μM ATP, kinase substrate (PIP2, 50 μg/mL), and kinases PI3Kα (0.15 μg/mL), PI3Kδ (1.2 μg/mL), PI3Kβ (0.3 μg/mL), PI3Kγ (2.5 μg/mL), and the like. The reaction system was reacted at room temperature for 1 h. The reaction was terminated by adding a termination reagent (ADP-Glo reagent, 5 μL), and the ADP content in the system was detected using a detection reagent (Kinase Detection Reagent, 10 μL). Signal data were collected using an Envision instrument. The inhibition rate was calculated according to the following equation: % inhibition=(DMSO control signal value−sample signal value)/(DMSO control signal value−kinase-free control signal value). The IC50 values were obtained by fitting a curve using the equation: Y=Bottom+(Top−Bottom)/(1+(IC50/X)^HillSlope).

PI3Kβ = PI3Kβ (Homo sapiens, UniProt P42338); experiment: ADP-Glo kinase assay, in vitro inhibition of PI3Kβ kinase activity; format: biochemical; conditions: 25 μM ATP, PIP2 50 μg/mL, room temperature 1 h, read-out: Inhibitory activity against PI3K kinases, PI3Kβ (IC50)
Chain of PI3Kβ (P42338 whole entry, species assumed): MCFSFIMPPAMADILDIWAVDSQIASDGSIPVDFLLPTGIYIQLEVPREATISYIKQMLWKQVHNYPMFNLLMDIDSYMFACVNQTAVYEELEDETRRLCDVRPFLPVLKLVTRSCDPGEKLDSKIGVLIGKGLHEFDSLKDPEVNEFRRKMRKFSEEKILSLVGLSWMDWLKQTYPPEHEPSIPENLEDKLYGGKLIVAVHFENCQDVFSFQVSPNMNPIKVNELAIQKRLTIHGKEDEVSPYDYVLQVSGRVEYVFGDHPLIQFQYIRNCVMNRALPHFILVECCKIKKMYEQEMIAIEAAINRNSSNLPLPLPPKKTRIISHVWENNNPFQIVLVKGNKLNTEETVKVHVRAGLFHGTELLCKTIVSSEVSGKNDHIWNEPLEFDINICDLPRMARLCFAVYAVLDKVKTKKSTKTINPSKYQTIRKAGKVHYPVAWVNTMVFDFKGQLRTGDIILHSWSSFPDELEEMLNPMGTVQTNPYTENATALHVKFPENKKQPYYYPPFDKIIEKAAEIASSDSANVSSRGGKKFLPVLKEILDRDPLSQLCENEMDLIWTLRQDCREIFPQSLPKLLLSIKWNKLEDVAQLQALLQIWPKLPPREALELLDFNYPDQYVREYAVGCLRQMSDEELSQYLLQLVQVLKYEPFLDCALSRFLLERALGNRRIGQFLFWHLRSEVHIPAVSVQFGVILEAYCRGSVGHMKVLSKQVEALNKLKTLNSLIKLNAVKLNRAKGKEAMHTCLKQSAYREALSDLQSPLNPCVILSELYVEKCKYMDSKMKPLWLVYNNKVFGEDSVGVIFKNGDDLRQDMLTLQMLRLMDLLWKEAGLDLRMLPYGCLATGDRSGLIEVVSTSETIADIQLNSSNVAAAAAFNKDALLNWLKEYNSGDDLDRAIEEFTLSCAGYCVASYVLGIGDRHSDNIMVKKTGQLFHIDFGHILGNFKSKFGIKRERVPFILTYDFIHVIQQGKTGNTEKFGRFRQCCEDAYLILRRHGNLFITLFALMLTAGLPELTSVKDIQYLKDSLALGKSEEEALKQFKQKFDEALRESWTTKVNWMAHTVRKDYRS
Chain of PI3Kβ (P27986 whole entry partner, species assumed): as the sequence (P27986 whole entry partner) above
Experimental: as §1, §2

PI3Kγ = PI3Kγ (Homo sapiens, UniProt P48736); experiment: ADP-Glo kinase assay, in vitro inhibition of PI3Kγ kinase activity; format: biochemical; conditions: 25 μM ATP, PIP2 50 μg/mL, room temperature 1 h, read-out: Inhibitory activity against PI3K kinases, PI3Kγ (IC50)
Chain of PI3Kγ (P48736 whole entry, species assumed): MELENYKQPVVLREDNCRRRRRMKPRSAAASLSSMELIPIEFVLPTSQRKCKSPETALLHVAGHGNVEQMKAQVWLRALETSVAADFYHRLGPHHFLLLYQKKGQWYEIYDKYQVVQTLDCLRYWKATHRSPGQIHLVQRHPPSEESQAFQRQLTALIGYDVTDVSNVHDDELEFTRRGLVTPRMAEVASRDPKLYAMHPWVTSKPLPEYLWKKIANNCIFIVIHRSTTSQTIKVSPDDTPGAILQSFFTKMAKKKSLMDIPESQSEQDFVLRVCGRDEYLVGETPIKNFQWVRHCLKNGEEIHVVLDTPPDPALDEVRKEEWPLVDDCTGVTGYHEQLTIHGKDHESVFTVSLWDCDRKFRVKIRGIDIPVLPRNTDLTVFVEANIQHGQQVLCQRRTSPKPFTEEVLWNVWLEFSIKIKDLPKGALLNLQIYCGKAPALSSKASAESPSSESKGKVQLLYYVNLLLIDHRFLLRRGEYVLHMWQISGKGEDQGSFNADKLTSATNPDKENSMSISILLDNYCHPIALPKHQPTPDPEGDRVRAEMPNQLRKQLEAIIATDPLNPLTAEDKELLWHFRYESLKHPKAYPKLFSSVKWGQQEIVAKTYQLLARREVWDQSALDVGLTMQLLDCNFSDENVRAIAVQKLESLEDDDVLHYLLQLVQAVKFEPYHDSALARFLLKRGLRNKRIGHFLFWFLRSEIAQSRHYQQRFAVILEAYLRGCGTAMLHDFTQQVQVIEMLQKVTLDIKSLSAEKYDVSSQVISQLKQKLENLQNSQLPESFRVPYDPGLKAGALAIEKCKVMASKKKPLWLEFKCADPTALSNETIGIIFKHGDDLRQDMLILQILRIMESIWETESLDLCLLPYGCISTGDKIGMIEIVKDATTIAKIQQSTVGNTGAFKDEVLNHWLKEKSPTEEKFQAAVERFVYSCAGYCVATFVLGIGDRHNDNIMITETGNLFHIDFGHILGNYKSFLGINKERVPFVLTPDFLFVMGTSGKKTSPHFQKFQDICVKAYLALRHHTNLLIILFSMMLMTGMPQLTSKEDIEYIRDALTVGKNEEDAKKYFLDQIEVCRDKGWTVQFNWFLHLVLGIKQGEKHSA
Experimental: as §1, §2

PI3Kδ = PI3Kδ (Homo sapiens, UniProt O00329); experiment: ADP-Glo kinase assay, in vitro inhibition of PI3Kδ kinase activity; format: biochemical; conditions: 25 μM ATP, PIP2 50 μg/mL, room temperature 1 h, read-out: Inhibitory activity against PI3K kinases, PI3Kδ (IC50)
Chain of PI3Kδ (O00329 whole entry, species assumed): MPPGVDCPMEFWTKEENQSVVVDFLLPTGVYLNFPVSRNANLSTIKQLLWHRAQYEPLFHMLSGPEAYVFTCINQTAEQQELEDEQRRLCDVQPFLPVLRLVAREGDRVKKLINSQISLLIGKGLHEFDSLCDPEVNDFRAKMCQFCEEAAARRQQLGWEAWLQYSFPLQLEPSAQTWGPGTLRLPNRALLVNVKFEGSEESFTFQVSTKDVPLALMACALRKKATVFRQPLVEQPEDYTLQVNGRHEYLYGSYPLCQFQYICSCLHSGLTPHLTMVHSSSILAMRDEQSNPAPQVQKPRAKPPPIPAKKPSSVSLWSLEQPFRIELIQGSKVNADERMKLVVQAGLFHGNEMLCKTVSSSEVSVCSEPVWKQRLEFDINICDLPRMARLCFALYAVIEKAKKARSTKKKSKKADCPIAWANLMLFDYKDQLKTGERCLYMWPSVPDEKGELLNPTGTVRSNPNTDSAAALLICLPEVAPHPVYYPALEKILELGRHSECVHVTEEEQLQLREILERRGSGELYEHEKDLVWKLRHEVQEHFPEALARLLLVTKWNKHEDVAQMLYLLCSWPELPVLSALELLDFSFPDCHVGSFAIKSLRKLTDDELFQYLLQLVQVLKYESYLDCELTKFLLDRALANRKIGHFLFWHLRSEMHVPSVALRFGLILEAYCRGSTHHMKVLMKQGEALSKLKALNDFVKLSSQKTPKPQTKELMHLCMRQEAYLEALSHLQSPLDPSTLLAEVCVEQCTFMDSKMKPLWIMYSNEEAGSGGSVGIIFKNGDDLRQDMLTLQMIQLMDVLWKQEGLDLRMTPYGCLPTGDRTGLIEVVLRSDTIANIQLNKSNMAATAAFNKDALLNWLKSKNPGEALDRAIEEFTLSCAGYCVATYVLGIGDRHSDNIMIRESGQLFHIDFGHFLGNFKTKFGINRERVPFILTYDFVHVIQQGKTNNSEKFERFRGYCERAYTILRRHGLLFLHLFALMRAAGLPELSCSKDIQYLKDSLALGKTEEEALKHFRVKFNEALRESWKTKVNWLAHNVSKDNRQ
Chain of PI3Kδ (P27986 whole entry partner, species assumed): as the sequence (P27986 whole entry partner) above
Experimental: as §1, §2

[1] = tested on: HCC1954 cells (with PI3Kα H1047R mutation); experiment: In vitro inhibition of HCC1954 cell proliferation (CellTiter-Lumi); format: cell-based; conditions: Homo sapiens, HCC1954, 144 h, HCC1954 cells, 144 h, CellTiter-Lumi; numeric values; read-out: Inhibitory activity against HCC1954 cells (IC50)
Experimental: Assay for In Vitro Inhibition of HCC1954 Cell Proliferation by Compounds of the Present Disclosure
The growth of the cells was evaluated, and the IC50 for the inhibition of cell growth by the compounds was calculated.

[2] = tested on: MCF-7 cells (with PI3Kα E545K mutation); experiment: In vitro inhibition of MCF-7 cell proliferation (CellTiter-Lumi); format: cell-based; conditions: Homo sapiens, MCF7, 144 h, numeric values, read-out: Inhibitory activity against MCF-7 cells (IC50)
In short: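 Growth IC50 derived from ATP luminescence (CellTiter-Lumi) after 144 h exposure of MCF-7 cells carrying PI3Kα E545K, plated 2000 cells/well and dosed with serial dilutions one day after seeding.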

`C=CC(=O)Nc1ccc(N2CC(CN3CCN(c4ccc5c(c4)-c4nc(N6C(=O)OC[C@H]6C(F)F)cn4CCO5)CC3)C2)cc1` [Compound 4] gave a pIC50 (PI3Kα) of 8.13, a pIC50 (PI3Kβ) of 6.50 and a pIC50 (PI3Kγ) of 7.01. It also gave a pIC50 (PI3Kδ) of 7.37, a pIC50 [1] of 7.19 and a pIC50 [2] of 7.59.

With `C=CC(=O)N1CCC(N2CC(CN3CCN(c4ccc5c(c4)-c4nc(N6C(=O)OC[C@H]6C(F)F)cn4CCO5)CC3)C2)CC1` [Compound 5] the pIC50 (PI3Kα) was 7.30, the pIC50 (PI3Kβ) was 6.50 and the pIC50 (PI3Kγ) was 5.92. The pIC50 (PI3Kδ) was 6.93, the pIC50 [1] was 6.17 and the pIC50 [2] was 7.46.

`CN(C)C/C=C/C(=O)Nc1ccc(N2CC(N3CCN(c4ccc5c(c4)-c4nc(N6C(=O)OC[C@H]6C(F)F)cn4CCO5)CC3)C2)cc1` [Compound 96] was tested, and the pIC50 (PI3Kα) was 8.88, the pIC50 (PI3Kβ) was 5.50 and the pIC50 (PI3Kγ) was 6.65. The pIC50 (PI3Kδ) was 6.32, the pIC50 [1] was 7.59 and the pIC50 [2] was 8.60.

`C=CC(=O)N1CC(N2CCC(CN3CCN(c4ccc5c(c4)-c4nc(N6C(=O)OC[C@H]6C(F)F)cn4CCO5)CC3)CC2)C1` [Compound 17] gave a pIC50 (PI3Kα) of 7.96, a pIC50 (PI3Kβ) of 6.50 and a pIC50 (PI3Kγ) of 6.50. It also gave a pIC50 (PI3Kδ) of 7.04, a pIC50 [1] of 7.09 and a pIC50 [2] of 7.80.
